Experimental data reported in patent publication US9023843B2, “Antimicrobial compounds and methods of making and using the same” (Melinta Therapeutics, Inc., priority 2009, dated 2015).

Test system: Eschericia coli strain ATCC25922
Assay: standard microdilution assay to determine minimum inhibitory concentrations (MICs)
Assay type: cell-based
Conditions: Escherichia coli, read-out: E. coli ATCC25922 MIC
Experimental: Minimum inhibitory concentrations (MICs) are determined by the microdilution method, typically in a final volume of 100 microliters, according to protocols outlined by The Clinical and Laboratory Standards Institute [CLSI; formerly the National Committee for Clinical Laboratory Standards (NCCLS)]. See CLSI: Methods for dilution antimicrobial susceptibility tests for bacteria that grow aerobically; approved standard-fifth edition. Wayne, Pa.: NCCLS; 2000. The assays can be also be performed in microtiter trays according to conventional methodologies as published by the CLSI. See CLSI. Methods for Dilution Antimicrobial Susceptibility Tests for Bacteria That Grow Aerobically; Approved Standard-Seventh Edition. CLSI Document M7-A7 [ISBN 1-56238-587-9] CLSI, 940 West Valley Road, Suite 1400, Wayne Pa. 19087-1898 USA, 2006).
The compounds of the present invention were tested for antimicrobial activity. The compounds were run against Eschericia coli strain ATCC25922 using a standard microdilution assay to determine minimum inhibitory concentrations (MICs). […] A “N/A” means that data is unavailable. It will be recognized by one skilled in the art that the compounds can be assessed against other bacterial organisms and that the presentation of data for activity against Eschericia coli is illustrative and in no way is intended to limit the scope of the present invention. The compounds of the present invention can be assayed against a range of other microorganisms depending upon the performance activity desired to be gathered. Furthermore, the “+”, “−”, and “N/A” representation and the selection of a cutoff value of 16 micrograms/ml is also illustrative and in no way is intended to limit the scope of the present invention.

MIC [µg/mL] | SMILES
> 16 | NCCCNCc1ccc(-c2cn3c(=O)cc(-c4ccc(OC(F)(F)F)cc4)[nH]c3nc2=O)cc1 [Compound 377]
> 16 | CCn1cc2c(nc1=O)Nc1cc(CNCCCN3CCNCC3)ccc1O2 [Compound 919]
< 16 | N=C(N)NCCCNC(=O)C1CCC(n2cc3c(nc2=O)Nc2cc(C4CCNCC4)ccc2O3)CC1 (centres unmarked) [Compound 1236]
> 16 | NCCCNCc1ccc(-c2cn3c(=O)cc(-c4ccc(Cl)c(Cl)c4)[nH]c3nc2=O)cc1 [Compound 390]
> 16 | NCCS(=O)(=O)NC1CCC(n2cc3c(nc2=O)Nc2cc(C4CCNCC4)ccc2O3)CC1 (centres unmarked) [Compound 1147]
> 16 | NC[C@H]1CC[C@H](n2cc3c(nc2=O)Nc2c(OCCCCl)cccc2O3)CC1 [Compound 1450]
> 16 | NCCCNCc1ccc(-c2cn3c(=O)cc(-c4ccccc4OC(F)(F)F)[nH]c3nc2=O)cc1 [Compound 371]
< 16 | N=C(N)NCCCN1CCCC(n2cc3c(nc2=O)Nc2cc(C(=O)NCCc4cnc[nH]4)ccc2O3)CC1 (centres unmarked) [Compound 707]
< 16 | NCCCNC1CCC(n2cc3c(nc2=O)Nc2cc(C(=O)NCCCN4CCNCC4)ccc2O3)CC1 (centres unmarked) [Compound 731]
> 16 | Cc1ccc(CCCN(CCCc2ccc(C)o2)C2CCC(n3cc4c(nc3=O)Nc3cc(C5CCNCC5)ccc3O4)CC2)o1 (centres unmarked) [Compound 1198]
> 16 | CC(=O)NCCOc1cccc2c1Nc1nc(=O)n(C3CCC(CN)CC3)cc1O2 (centres unmarked) [Compound 1426]
< 16 | N=C(N)NCCCN1CCC(n2cc3c(nc2=O)Nc2cc(C4CCN(C(=O)CNC(=N)N)CC4)ccc2O3)CC1 [Compound 715]
> 16 | NCCCN1CCC(n2cc3c(nc2=O)Nc2cc(C4CCN(C(=O)CN(Cc5ccc(F)c(F)c5)C5CCNCC5)CC4)ccc2O3)CC1 [Compound 748]
< 16 | N=C(N)NCCC(=O)NC1CCC(n2cc3c(nc2=O)Nc2cc(C4CCNCC4)ccc2O3)CC1 (centres unmarked) [Compound 1032]
> 16 | NCCCN1CCCC(n2cc3c(nc2=O)Nc2cc(C(=O)N4CCC[C@H](N)C4)ccc2O3)CC1 (some centres unmarked) [Compound 870]
> 16 | N[C@H]1CCCN(CCNCc2ccc3c(c2)Nc2nc(=O)n(C4CCCNCC4)cc2O3)C1 (some centres unmarked) [Compound 921]
< 16 | N=C(N)NCCCN(C(=O)CCNC(=N)N)C1CCC(n2cc3c(nc2=O)Nc2cc(C4CCNCC4)ccc2O3)CC1 (centres unmarked) [Compound 1135]
> 16 | NCCCNCc1ccc(-c2cn3c(=O)cc(Cc4ccc5c(c4)OCO5)[nH]c3nc2=O)cc1 [Compound 380]
> 16 | N=C(N)NCCCCCN1CC[C@@H](n2cc3c(nc2=O)Nc2ccccc2O3)C1 [Compound 575]
< 16 | N=C(N)NCCNC(=O)C1CCC(n2cc3c(nc2=O)Nc2cc(C4CCNCC4)ccc2O3)CC1 (centres unmarked) [Compound 1237]
< 16 | NCCCN(CCCN)CC1CCC(n2cc3c(nc2=O)Nc2cc(C4CCNCC4)ccc2O3)CC1 (centres unmarked) [Compound 1370]
> 16 | COc1ccc(-c2cc(=O)n3cc(-c4ccc(CNCCCN)cc4)c(=O)nc3[nH]2)cc1 [Compound 378]

MIC [µg/mL] | SMILES
> 16 | NCCCNCc1ccc(-c2cn3c(=O)cc(-c4cc(F)c(F)cc4F)[nH]c3nc2=O)cc1 [Compound 362]
> 16 | N=C(N)NCCCN1CCC(n2cc3c(nc2=O)Nc2cc(C4CCN(S(=O)(=O)C5CC5)CC4)ccc2O3)CC1 [Compound 694]
> 16 | O=c1nc2c(cn1C1CCC(NCCCc3cnn[nH]3)CC1)Oc1ccc(C3CCNCC3)cc1N2 (centres unmarked) [Compound 1212]
> 16 | NCCCN1CCC(n2cc3c(nc2=O)Nc2cc(C(=O)NCCN4CCC[C@H](N)C4)ccc2O3)CC1 [Compound 798]
> 16 | NC[C@H]1CC[C@H](n2cc3c(nc2=O)Nc2c(OCCNC(N)=O)cccc2O3)CC1 [Compound 4001c]
< 16 | N=C(N)NCCCN1CCC(n2cc3c(nc2=O)Nc2cc(C4CCN(C(=O)CN(Cc5ccc(F)c(F)c5)C5CCNCC5)CC4)ccc2O3)CC1 [Compound 749]
> 16 | O=C(NCCCN1CCNCC1)c1ccc2c(c1)Nc1nc(=O)n(C3CCCNCC3)cc1O2 (centres unmarked) [Compound 890]
> 16 | N=C(N)NCCCN1CCCC(n2cc3c(nc2=O)Nc2cc(-c4ccc(C(F)(F)F)nc4)ccc2O3)CC1 (centres unmarked) [Compound 667]
> 16 | COc1ccc(-c2ccc3c(c2)Nc2nc(=O)n(C4CCN(CCCN)CC4)cc2O3)cc1F [Compound 615]
< 16 | N=C(N)NCCCNC1CCC(n2cc3c(nc2=O)Nc2cc(C(=O)NCCCN4CCNCC4)ccc2O3)CC1 (centres unmarked) [Compound 732]
> 16 | N=C(N)NCCCN1CCC(n2cc3c(nc2=O)Nc2cc(C(=O)Nc4ccc(F)cc4F)ccc2O3)CC1 [Compound 656]
> 16 | N=C(N)NCCCN1CCC(n2cc3c(nc2=O)Nc2cc(C(=O)NCCCN4CCOCC4)ccc2O3)CC1 [Compound 642]
< 16 | N=C(N)NCCCNC1CCC(n2cc3c(nc2=O)Nc2cc(C(=O)NCCN4CCNCC4)ccc2O3)CC1 (centres unmarked) [Compound 741]
> 16 | N=C(N)NCCCN1CCC(n2cc3c(nc2=O)Nc2cc(C(=O)NCC(F)(F)F)ccc2O3)CC1 [Compound 639]
> 16 | NC1CCC(Cn2cc3c(nc2=O)Nc2cc(C4CCNCC4)ccc2O3)CC1 (centres unmarked) [Compound 1368]
> 16 | NCCCOc1cccc2c1Nc1nc(=O)n([C@H]3CC[C@H](CN)CC3)cc1O2 [Compound 1449]
< 16 | NCCCNCC1CCC(n2cc3c(nc2=O)Nc2cc(C4CCNCC4)ccc2O3)CC1 (centres unmarked) [Compound 1269]
> 16 | N=C(N)NCCCN1CCC(n2cc3c(nc2=O)Nc2cc(C(=O)Nc4ccccc4OC(F)(F)F)ccc2O3)CC1 [Compound 675]
> 16 | NCCCN1CCCC(n2cc3c(nc2=O)Nc2cc(C4CCN(C(=O)CCN)CC4)ccc2O3)CC1 (centres unmarked) [Compound 795]
< 16 | N=C(N)NCCCN1CCCC(n2cc3c(nc2=O)Nc2cc(C(=O)NCCC4CCNCC4)ccc2O3)CC1 (centres unmarked) [Compound 708]
< 16 | CN(C)CC(=O)N1CCC(c2ccc3c(c2)Nc2nc(=O)n(C4CCC(NCCCNC(=N)N)CC4)cc2O3)CC1 (centres unmarked) [Compound 751]
< 16 | N=C(N)NCCCN[C@H]1CC[C@H](n2cc3c(nc2=O)Nc2cc(CCN4CCOCC4)ccc2O3)CC1 [Compound 956]

MIC [µg/mL] | SMILES
< 16 | N=C(N)NCCCN1CCCC(n2cc3c(nc2=O)Nc2cc(C(=O)N4CCC[C@H](N)C4)ccc2O3)CC1 (some centres unmarked) [Compound 950]
> 16 | NC[C@H]1CC[C@H](n2cc3c(nc2=O)Nc2c(OCCCN4CCNCC4)cccc2O3)CC1 [Compound 1441]
> 16 | NCCCNCc1ccc(-n2cc3c(nc2=O)Nc2cc(Br)ccc2O3)cc1 [Compound 396]
> 16 | NCCCCCN1CC[C@@H](n2cc3c(nc2=O)Nc2ccccc2O3)C1 [Compound 543]
> 16 | N=C(N)NCCCCCN1CCCC(n2cc3c(nc2=O)Nc2ccccc2O3)CC1 (centres unmarked) [Compound 576]
> 16 | NCCCN1CCC(n2cc3c(nc2=O)Nc2cc(C4CCN(C(=O)CN)CC4)ccc2O3)CC1 [Compound 714]
< 16 | NCCNC(=O)C1CCC(n2cc3c(nc2=O)Nc2cc(C4CCNCC4)ccc2O3)CC1 (centres unmarked) [Compound 1238]
< 16 | N=C(N)NCCCNC1CCC(n2cc3c(nc2=O)Nc2cc(C4CCN(C(=O)CNC(=N)N)CC4)ccc2O3)CC1 (centres unmarked) [Compound 752]
> 16 | NCCCNCc1ccc(-n2cc3c(nc2=O)Nc2cc(-c4ccc(F)cc4)ccc2O3)cc1 [Compound 402]
< 16 | NCCCNC1CCC(n2cc3c(nc2=O)Nc2cc(C4CCN(C(=O)CN(Cc5ccc(F)c(F)c5)C5CCNCC5)CC4)ccc2O3)CC1 (centres unmarked) [Compound 754]
> 16 | NC1CCC(n2cc3c(nc2=O)Nc2cc(C4CCN(CC(=O)N(CC5CC5(F)F)C5CCNCC5)CC4)ccc2O3)CC1 (centres unmarked) [Compound 1042]
> 16 | NC[C@H]1CC[C@H](n2cc3c(nc2=O)Nc2c(OCCCOCc4ccccc4)cccc2O3)CC1 [Compound 4003c]
< 16 | NCCCN1CCC(n2cc3c(nc2=O)Nc2cc(CCc4cccc(F)c4)ccc2O3)CC1 [Compound 592, 3-[1-(3-Amino-propyl)-piperidin-4-yl]-7-[2-(3-fluoro-phenyl)-ethyl]-3H,9H-10-oxa-1,3,9-triaza-anthracen-2-one]
> 16 | N=C(N)NCCCN1CCCC(n2cc3c(nc2=O)Nc2cc(C(=O)Nc4ccc(F)cc4F)ccc2O3)CC1 (centres unmarked) [Compound 657]
< 16 | N=C(N)NCCCN1CCC(n2cc3c(nc2=O)Nc2cc(C4CCN(C(=O)Nc5ccc(C(F)(F)F)cc5)CC4)ccc2O3)CC1 [Compound 729]
< 16 | NCCC(=O)NC1CCC(n2cc3c(nc2=O)Nc2cc(C4CCNCC4)ccc2O3)CC1 (centres unmarked) [Compound 1086]
> 16 | O=C(CCN1CCNCC1)NC1CCC(n2cc3c(nc2=O)Nc2cc(C4CCNCC4)ccc2O3)CC1 (centres unmarked) [Compound 1192]
> 16 | NCCCN1CCC(n2cc3c(nc2=O)N[C@@H]2CCCC[C@H]2O3)CC1 [Compound 929]
> 16 | N=C(N)NCCCN1CCC(n2cc3c(nc2=O)Nc2cc(C(=O)NCCc4nc5ccccc5[nH]4)ccc2O3)CC1 [Compound 641]
> 16 | NCCCN1CCCC(n2cc3c(nc2=O)Nc2ccccc2O3)CC1 (centres unmarked) [Compound 598]
< 16 | N=C(N)NCCCN1CCCC(n2cc3c(nc2=O)Nc2cc(C4CCN(C(N)=O)CC4)ccc2O3)CC1 (centres unmarked) [Compound 833]
